Values after ≈ are worked out from the molar mass of the structure shown.
Conditions: for aqueous solubility: pH 6.8

SMILES	MDR1-MDCK efflux ratio	intrinsic clearance, human liver microsomes	intrinsic clearance, rat liver microsomes	aqueous solubility
CC(C)(C)OC(=O)NCc1ccc(C(=N)NC(=O)OCc2ccccc2)cc1	2.23	84.3 mL/min/kg	1300 mL/min/kg	2.59 µg/mL (≈ 6.75 µM)
COC(=O)Nc1nc2ccccc2[nH]1				8.05 µg/mL (≈ 42.1 µM)
Cc1cc(C)c(S(=O)(=O)Nc2ccc3c(c2)OCO3)c(C)c1-n1cnnn1	24.1			17.8 µg/mL (≈ 46 µM)
CC1(C)CC[C@]2(C(=O)O)CC[C@]3(C)C(C(=O)C=C4[C@@]5(C)C=C(C#N)C(=O)C(C)(C)[C@@H]5CC[C@]43C)C2C1 (some centres not stated)				63.5 µg/mL (≈ 129 µM)
Cc1ccc(-n2cc(C(=O)NCCN(C)C)nn2)cc1C	3.18	≤ 4.74 mL/min/kg	189 mL/min/kg	28.4 µg/mL (≈ 98.9 µM)
CC(C)c1cc(C(C)C)c(CC(=O)NS(=O)(=O)Oc2c(C(C)C)cccc2C(C)C)c(C(C)C)c1	4.45	45.9 mL/min/kg	170 mL/min/kg	
Cc1ccc(S(=O)(=O)N2CCCc3ccc(NS(=O)(=O)c4cc(F)ccc4F)cc32)cc1		244 mL/min/kg	2260 mL/min/kg	
CCOC(=O)c1ccc(S(=O)(=O)N2CCc3cc(C(=O)OC)ccc32)cc1				0.83 µg/mL (≈ 2.13 µM)
CCCCOc1ccccc1-c1cc(C(=O)NCCc2cccs2)[nH]n1	0.459			0.37 µg/mL (≈ 1 µM)
CCN(CC)C(=O)c1ccc(NC(C)=O)cc1	1.95	≤ 4.74 mL/min/kg	25.6 mL/min/kg	34.6 µg/mL (≈ 148 µM)
CCCCCNC(=N)N/N=C/c1c[nH]c2ccc(OC)cc12	72	10.3 mL/min/kg	182 mL/min/kg	30.1 µg/mL (≈ 100 µM)
O=C(O)c1ccc(Nc2ncc3c(n2)-c2ccc(Cl)cc2C(c2c(F)cccc2F)=NC3)cc1	3.32	≤ 4.74 mL/min/kg	102 mL/min/kg	47.1 µg/mL (≈ 98.8 µM)
Cc1nn(Cc2cccc(Br)c2)c(C)c1C(=O)O	1.58	≤ 4.74 mL/min/kg	≤ 10.7 mL/min/kg	51.4 µg/mL (≈ 166 µM)
N#Cc1ccccc1NC(=O)CCc1ccccc1	0.552	16 mL/min/kg	456 mL/min/kg	
CN(C)Cc1csc(-c2nccn2-c2ccc3c(c2)n(C)c(=O)n3C)c1	72.5	≤ 4.74 mL/min/kg	38.2 mL/min/kg	31.4 µg/mL (≈ 85.6 µM)

Second part, the molecule after the results:

MDR1-MDCK efflux ratio	intrinsic clearance, human liver microsomes	intrinsic clearance, rat liver microsomes	aqueous solubility	SMILES
	≤ 4.74 mL/min/kg	299 mL/min/kg		Cc1nc2ccccc2n1CCNc1ncccn1
0.657	19.2 mL/min/kg	223 mL/min/kg	40.9 µg/mL (≈ 159 µM)	Cc1ccc(CN(C)c2ncnc3c2cnn3C)o1
	82.2 mL/min/kg	216 mL/min/kg		Nc1ccc(Nc2ncc3cnn(C4CCCCCC4)c3n2)cn1
0.62	230 mL/min/kg	5760 mL/min/kg		CN(Cc1cnc2ccccc2n1)S(=O)(=O)N1CCCCCC1
7.87	11.5 mL/min/kg	150 mL/min/kg	41.5 µg/mL (≈ 148 µM)	Cn1ccnc1CCNC(=O)c1cccc2cccnc12
0.751			31.3 µg/mL (≈ 126 µM)	COc1ccc(-c2csc(CC(N)=O)n2)cc1
1.55	≤ 4.74 mL/min/kg	47.9 mL/min/kg	31.5 µg/mL (≈ 140 µM)	O=c1[nH]c2cnccc2n1Cc1ccccc1
6.78	34.2 mL/min/kg	481 mL/min/kg	14.3 µg/mL (≈ 48.5 µM)	O=c1cc(CN2CCCCc3ccccc32)[nH]c2ccnn12
10.4	≤ 4.74 mL/min/kg	14.1 mL/min/kg	94.8 µg/mL (≈ 284 µM)	O=C(c1ccc(F)cc1)N1CCN(CC(=O)N2CCCC2=O)CC1

Reference: the Biogen ADME set (Fang et al. 2023)
